We go through 2 molecules from ChEMBL document CHEMBL2029268, “A new high-yield synthetic route to PET CB1 radioligands [11C]OMAR and its analogs” (Bioorg Med Chem Lett, 2012).

The data set is described as follows: Octanol-water distribution coefficient, log P of the compound by HPLC analysis. Type of data set: physicochemical.

What is called logP is the decadic logarithm of the partition coefficient of the neutral form, usually between octanol and water. A low value points to a more hydrophilic compound.

`[11CH3]Oc1ccc(-c2c(C#N)c(C(=O)NN3CCCCC3)nn2-c2ccccc2Br)cc1` gave a logP of 2.29.

Regarding `[11CH3]Oc1ccc(-c2c(C#N)c(C(=O)NN3CCCC3)nn2-c2ccccc2Br)cc1`, the logP is 2.03.
